From ChEMBL document CHEMBL4823315 (Bioorg Med Chem Lett, 2021) come the findings set out here.

Series [1] is described as follows: Inhibition of p70S6K (unknown origin). Details: species or system Homo sapiens.
In series [2] the target is Serine/threonine-protein kinase AKT (Homo sapiens, UniProt P31751+Q9Y243+P31749). As to the kind of experiment: Inhibition of Akt (unknown origin). It is filed as protein assay.
Series [3] in a line: Inhibition of Akt/p70S6K in human MDA-MB-436 cells assessed as inhibition of S6 phosphorylation. It is filed as cell-based.
For series [4], the target named is Voltage-gated inwardly rectifying potassium channel KCNH2 (Homo sapiens, UniProt Q12809). As to the kind of experiment: Inhibition of human ERG by patch clamp assay.
A further series concerns the target hERG (KCNH2) (Homo sapiens, UniProt Q12809). As to the kind of experiment: Inhibition of human ERG at 10 uM by patch clamp assay. On the technique in general: Patch clamp records ionic current or voltage across a cell membrane.

Chain of Voltage-gated inwardly rectifying potassium channel KCNH2 (Q12809 whole entry): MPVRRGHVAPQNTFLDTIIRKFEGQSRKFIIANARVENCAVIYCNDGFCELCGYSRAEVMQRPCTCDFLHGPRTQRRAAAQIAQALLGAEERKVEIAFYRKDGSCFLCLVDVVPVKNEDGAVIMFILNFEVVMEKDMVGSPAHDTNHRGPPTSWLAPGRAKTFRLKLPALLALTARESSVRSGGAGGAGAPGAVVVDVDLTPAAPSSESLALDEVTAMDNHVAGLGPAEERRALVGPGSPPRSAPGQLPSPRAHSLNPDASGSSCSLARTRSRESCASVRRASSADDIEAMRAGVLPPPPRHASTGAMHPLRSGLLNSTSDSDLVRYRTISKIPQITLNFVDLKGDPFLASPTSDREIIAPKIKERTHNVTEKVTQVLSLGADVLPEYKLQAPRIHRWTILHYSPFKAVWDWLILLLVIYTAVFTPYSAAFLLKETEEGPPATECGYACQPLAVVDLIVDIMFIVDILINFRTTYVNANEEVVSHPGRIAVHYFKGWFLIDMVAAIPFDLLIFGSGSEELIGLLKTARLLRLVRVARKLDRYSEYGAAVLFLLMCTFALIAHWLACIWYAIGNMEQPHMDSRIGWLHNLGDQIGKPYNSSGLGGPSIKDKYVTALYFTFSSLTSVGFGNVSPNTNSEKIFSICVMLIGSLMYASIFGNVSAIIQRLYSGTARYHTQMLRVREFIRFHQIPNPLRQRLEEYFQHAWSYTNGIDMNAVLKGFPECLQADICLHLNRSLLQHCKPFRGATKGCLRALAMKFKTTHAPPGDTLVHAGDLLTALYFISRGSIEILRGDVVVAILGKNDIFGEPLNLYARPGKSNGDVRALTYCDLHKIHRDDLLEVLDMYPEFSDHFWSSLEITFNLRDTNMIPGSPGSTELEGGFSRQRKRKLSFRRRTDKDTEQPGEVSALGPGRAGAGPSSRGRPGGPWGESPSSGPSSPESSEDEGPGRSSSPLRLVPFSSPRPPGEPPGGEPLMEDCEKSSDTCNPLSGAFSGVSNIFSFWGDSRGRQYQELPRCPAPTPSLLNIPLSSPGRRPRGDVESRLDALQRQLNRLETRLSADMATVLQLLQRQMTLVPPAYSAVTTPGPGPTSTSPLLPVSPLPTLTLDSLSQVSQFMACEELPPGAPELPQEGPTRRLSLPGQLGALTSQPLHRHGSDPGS
Chain of hERG (KCNH2) (Q12809 whole entry): as above

Usually IC50 stands for the concentration at which inhibition is half-maximal. On to `CN(C)CCn1cc(-c2ccc(F)c(C(F)(F)F)c2)nc1C1CCN(c2ncnc(N)c2C#N)CC1`, for which the IC50 in series [1] was 1.8 nM; in series [2] it was 6.9 nM; in series [3], 55000 nM; in series [4], 1600 nM.

As for `CN(C)CCn1cc(-c2ccc(F)c(C(F)(F)F)c2)nc1C1CCN(c2ncnc(N)c2C(N)=O)CC1`, the IC50 in series [1] amounted to 3.5 nM; in series [2], 84 nM; in series [3], 89000 nM; in series [4] it was 4000 nM.

In the case of `C=Cc1c(N)ncnc1N1CCC(c2nc(-c3ccc(F)c(C(F)(F)F)c3)cn2CCN(C)C)CC1`, the values for the IC50 in series [1], in series [2] and in series [4] were 3.5 nM, 9.1 nM and 1100 nM, respectively.

As for `CN(C)CCn1cc(-c2ccc(F)c(C(F)(F)F)c2)nc1C1CCN(c2ncnc(N)c2-c2ccc(F)cc2)CC1`, the IC50 in series [1] was 7.3 nM; in series [2], 230 nM; in series [4], 1200 nM.

Turning to `Nc1ncnc(N2CCC(c3nc(-c4ccc(F)c(C(F)(F)F)c4)cn3CCN3CCCC3)CC2)c1-c1ccc(F)cc1`, the IC50 in series [1] worked out at 8.2 nM; in series [2], 140 nM; in series [4], 1500 nM.

Consider `Cn1cc(-c2ccc(F)c(C(F)(F)F)c2)nc1C1CCN(c2ncnc(N)c2C(N)=O)CC1`, for which the IC50 in series [1] was 3 nM; in series [2] it was 1600 nM; in series [3], 2300 nM; in series [4], 1900 nM.

As to `Nc1ncnc(N2CCC(c3nc(-c4ccc(F)c(C(F)(F)F)c4)cn3CCN3CCCCC3)CC2)c1-c1ccc(F)cc1`, the IC50 amounted to 18 nM in series [1] and 350 nM in series [2].

`CC(C)c1c(N)ncnc1N1CCC(c2nc(-c3ccc(F)c(C(F)(F)F)c3)cn2CCN2CCC2)CC1`: the IC50 came out at 3.5 nM in series [1], 6.6 nM in series [2], 78000 nM in series [3] and 1800 nM in series [4].

Turning to `NCC(c1ccc(F)cc1)N1CCN(c2ncnc(N)c2-c2ccc(F)cc2)CC1` (stereo not given), the results for the IC50 in series [1], in series [2] and in series [3] were 4.4 nM, over 1000 nM and 1900 nM, respectively.

Regarding `CCc1c(N)ncnc1N1CCC(c2nc(-c3ccc(F)c(C(F)(F)F)c3)cn2CCN2CCC2)CC1`, the IC50 in series [1] was found to be 2 nM; in series [2] it was 4 nM; in series [3], 49000 nM; in series [4], 1600 nM.

Regarding `N#Cc1c(N)ncnc1N1CCC(c2nc(-c3ccc(F)c(C(F)(F)F)c3)cn2CCN2CCC2)CC1`, the 50% inhibitory concentration (IC50) was determined as 0.8 nM in series [1], 2.2 nM in series [2] and 52000 nM in series [3].

Turning to `Cn1cc(-c2ccc(F)c(C(F)(F)F)c2)nc1C1CCN(c2cc(N)ncn2)CC1`, the IC50 is 102 nM in series [1], over 1000 nM in series [2] and 22000 nM in series [3].

Take `CCc1c(N)ncnc1N1CCC(c2nc(-c3ccc(F)c(C(F)(F)F)c3)cn2CCN(C)C)CC1`: the IC50 in series [1] came out at 3.7 nM; in series [2] it was 12 nM.

In the case of `C=Cc1c(N)ncnc1N1CCC(c2nc(-c3ccc(F)c(C(F)(F)F)c3)cn2CCN2CCC2)CC1`, the IC50 was found to be 2.6 nM in series [1], 4.2 nM in series [2] and 930 nM in series [4].

For `NCC(c1ccc(F)c(C(F)(F)F)c1)N1CCN(c2ncnc(N)c2-c2ccc(F)cc2)CC1` (stereo not given), the IC50 is 14 nM in series [1], over 1000 nM in series [2] and 2900 nM in series [3].

For the molecule `NCC(c1ccccc1)N1CCN(c2ncnc(N)c2-c2ccc(F)cc2)CC1` (stereo not given), the values for the IC50 in series [1], in series [2] and in series [3] were 6.3 nM, over 1000 nM and 2600 nM, respectively.

One may read the inhibition as the share of the control response that was lost under treatment. A low value points to a response near the control. For `Cn1cc(-c2ccc(F)c(C(F)(F)F)c2)nc1C1CCN(c2ncnc3[nH]ncc23)CC1` [LY-2584702], at hERG (KCNH2), the inhibition at 10 µM was found to be 29%.

`NCC(c1ccc(C(F)(F)F)cc1)N1CCN(c2ncnc(N)c2-c2ccc(F)cc2)CC1` (stereo not given): the IC50 in series [1] was 2.2 nM; in series [2], 350 nM; in series [3], 400 nM.

`Cc1ncc(-c2c(N)ncnc2N2CCC(c3nc(-c4ccc(F)c(C(F)(F)F)c4)cn3C)CC2)s1`: the results for the IC50 in series [1], in series [2] and in series [3] were 2.1 nM, 850 nM and 600 nM, respectively.

Consider `Nc1ncnc(N2CCC(c3nc(-c4ccc(F)c(C(F)(F)F)c4)cn3CCN3CCC3)CC2)c1C1CCC1`, for which the IC50 was found to be 6 nM in series [1], 7.3 nM in series [2] and 1300 nM in series [4].

As for `CN(C)CC(c1ccc(C(F)(F)F)cc1)N1CCN(c2ncnc(N)c2-c2ccc(F)cc2)CC1` (stereo not given), the IC50 in series [1] was 4.9 nM; in series [2] it was over 1000 nM; in series [3], 1200 nM.

In the case of `Cn1cc(-c2ccc(F)c(C(F)(F)F)c2)nc1C1CCN(c2ncnc(N)c2-c2ccncc2)CC1`, the IC50 was 2 nM in series [1], 930 nM in series [2] and 400 nM in series [3].

As for `CN(C)CCn1cc(-c2ccc(F)c(C(F)(F)F)c2)nc1C1CCN(c2ncnc(N)c2C2CC2)CC1`, the IC50 was 3.2 nM in series [1], 4.8 nM in series [2] and 830 nM in series [4].

As for `Nc1ncnc(N2CCN(C(CN3CCC3)c3ccc(C(F)(F)F)cc3)CC2)c1-c1ccc(F)cc1` (stereo not given), the IC50 in series [1] was 4.2 nM; in series [2] it was over 1000 nM; in series [3] it was 1500 nM.

On to `Cn1cc(-c2ccc(F)c(C(F)(F)F)c2)nc1C1CCN(c2ncnc(N)c2-c2cncnc2)CC1`, for which the IC50 in series [1] is 2.3 nM; in series [2], 880 nM; in series [3], 700 nM.

For the molecule `Cn1cc(-c2ccc(F)c(C(F)(F)F)c2)nc1C1CCN(c2ncnc(N)c2C#N)CC1`, the IC50 in series [1] stood at 1.3 nM; in series [2], 260 nM; in series [3], 300 nM.

Consider `COc1c(N)ncnc1N1CCC(c2nc(-c3ccc(F)c(C(F)(F)F)c3)cn2C)CC1`, for which the IC50 turned out to be 2.2 nM in series [1], 518 nM in series [2] and 1200 nM in series [3].

For `Cn1cc(-c2ccc(F)c(C(F)(F)F)c2)nc1C1CCN(c2ncnc(N)c2-c2cccc(F)c2)CC1`, the IC50 in series [1] was 1.6 nM; in series [2] it was over 1000 nM; in series [3], 400 nM.

With `Nc1ncnc(N2CCC(c3nc(-c4ccc(F)c(C(F)(F)F)c4)cn3CCN3CCC3)CC2)c1-c1ccc(F)cc1`, the IC50 in series [1] was found to be 2.4 nM; in series [2], 23 nM; in series [4], 1300 nM.

`Cn1cc(-c2ccc(F)c(C(F)(F)F)c2)nc1C1CCN(c2ncnc(N)c2-c2ccccc2F)CC1`: the IC50 was 3 nM in series [1], over 1000 nM in series [2] and 800 nM in series [3].

Turning to `Nc1ncnc(N2CCC(c3nc(-c4ccc(F)c(C(F)(F)F)c4)cn3CCN3CCC3)CC2)c1Cl`, the IC50 in series [1] was found to be 0.6 nM; in series [2] it was 1 nM; in series [3], 64000 nM; in series [4], 1900 nM.
